From publication PMC4626104, “Inhibition on Proteasome β1 Subunit Might Contribute to the Anti-Cancer Effects of Fangchinoline in Human Prostate Cancer Cells” (PLoS ONE, 2015)
Where two headings read alike, the source gives them in different places.

What was measured:
[1] = system: PC-3 cells with over-expression of proteasome β1 subunit; test: MTT assay in PC-3 cells over-expressing proteasome β1 subunit (PSMB6 plasmid); format: cell-based, human; details: 24 h, 48 h or 72 h treatment
Experimental: (§1) The inhibitive effects of fangchinoline on proliferation of PC-3 cells or LnCap cells was observed by checking cell viability of cells using MTT assay as described before. Briefly, cells were seeded in 96-well plates at a density of 5×10^4 cells/mL for PC-3 cell and 4×10^4 cells/mL for LnCap cells. After overnight culture, the media were changed into fresh media containing various concentrations of fangchinoline or 0.1% DMSO (solvent control) for 24, 48 h or 72 h. Cell viability was evaluated by measuring the mitochondrial-dependent conversion of the yellow tetrazolium salt MTT to purple formazan crystals by metabolic active cells. The optical density (proportional to the number of live cells) was assessed with a Microplate Reader Bio-Rad 550 at 570 nm. IC50 value (half-maximal inhibitory concentration) was calculated by the Logit method.
Cells with over-expression of proteasome β1 subunit were obtained by transfection with pcDNA3.1 plasmid encoding full-length human PSMB6 cDNA as described before. For plasmid transfection, 5 × 10^5 cells were seeded into each well of a six-well plate until the cells reached approximately 80% confluence after cultured for 24 h. […]

[2] = system: T1, cellular proteasome of PC-3 cells; test: Cellular proteasome activities of PC-3 cells; format: cell-based, human
T1 construct: endogenous in cells; host or cells: PC-3 cells, whole cell extract
Experimental: Cells were treated with either solvent control (0.1% DMSO), fangchinoline at different concentrations, or 1 μM carfilzomib (positive control) for 24 h at 37 °C. The enzymatic activities of cellular proteasome in cell lysate were measured as reported in our previous paper. Briefly, cells were harvested, washed with PBS and then lysed in proteasome activity assay buffer for 30 min at 4°C. The homogenate was then centrifuged at 12000 × g for 30 min at 4°C. The supernatant was collected as whole cell extract and the protein content in the supernatant was measured with the Bradford reagent. Catalytic activities of cellular proteasome were assayed by adding whole cell extract (containing 30 μg protein) to 100 μL of proteasome activity assay buffer containing 50 μM fluorogenic peptide substrates such as Z-LLE-AMC for detecting C-L activity, Z-ARR-AMC for detecting T-L activity or Suc-LLVY-AMC for detecting CT-L activity, respectively. The release of fluorogenic AMC from the peptide substrates was then measured as described above.

[3] = target: T2, recombinant human proteasome β1 subunit (Homo sapiens, UniProt P28072); test: Surface plasmon resonance (Biacore) binding assay; details: Biacore, 25°C, 1:1 Langmuir model
T2 construct: His-Tag; made in house; host or cells: Escherichia coli
T2 sequence (P28072 1-239): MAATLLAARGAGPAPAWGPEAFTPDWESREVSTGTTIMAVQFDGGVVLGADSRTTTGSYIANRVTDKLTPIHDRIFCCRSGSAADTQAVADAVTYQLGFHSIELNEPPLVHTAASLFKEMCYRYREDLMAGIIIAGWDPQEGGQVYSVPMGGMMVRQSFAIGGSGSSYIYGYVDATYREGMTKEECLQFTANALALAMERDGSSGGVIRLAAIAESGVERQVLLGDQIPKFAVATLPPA
Experimental: The recombinant human proteasome β1 subunit, product of PSMB6 gene, was expressed as His-Tag proteins using Escherichia coli, and then purified by affinity chromatography as reported in our previous study. The binding affinities of fangchinoline or tetrandrine to recombinant proteasome catalytic β1 subunit, were assayed in vitro using an Biacore 3000 instrument (Biacore AB, Rapsgatan 7, S-754 50 Uppsala, Sweden) as reported before. Briefly, recombinant proteasome β1 subunit protein was immobilized on a CM5 sensor chip as ligand in 11624.5 RU with N-ethyl-N’-(3-dimethylaminopropyl) carbodiimide and N-hydroxysuccinimide according to the standard primary amine-coupling procedures, and HBS-EP (10 mM HEPES, 150 mM NaCl, 3 mM EDTA, 0.005% (v/v) surfactant P20, pH 7.4) was used as the running buffer. Equilibration of the baseline was performed by a continuous flow of HBS-EP through the chip surface for 1 to 2 h. Biacore data were collected at 25°C with HBS-EP as the running buffer at a constant flow of 20 μL/min. Fangchinoline or tetradrine was serially diluted into the running buffer to 0, 2.4, 3.43, 4.90, 7.0, 10 and 20 μM. The samples were injected into the channels at a flow rate of 20 μL/min, followed by washing with the running buffer. The binding responses were recorded continuously in response units (RU) at a frequency of 1Hz as sensorgrams and presented as a function of time. The association (k a) and dissociation (k d) rate constants, the equilibrium dissociation constant ( KD=kd/ka ) were determined by analysis of the sensorgram-curves obtained at different concentrations of the compound by use of BIA evaluation software version 3.1 (Biacore) and the 1:1 Langmuir binding fitting model.

[4] = system: PC-3 cells; test: MTT assay of cell proliferation, PC-3 cells; format: cell-based; details: Homo sapiens, read-out: IC50 inhibiting cell proliferation
Experimental: as §1

For `COc1ccc2cc1Oc1ccc(cc1)C[C@H]1c3cc(c(OC)cc3CCN1C)Oc1c(O)c(OC)cc3c1[C@H](C2)N(C)CC3` [fangchinoline], the “Sensitivity of cells with over-expression of proteasome β1 subunit to cytotoxicity vs wild type and negative control” value [1] was “more sensitive”, the “Inhibition of enzyme activity of cellular proteasome β1 subunit” value ([2]; 10 μM, 24 h treatment) was “about 50%” and the “Effect on chymotrypsin-like (CT-L) activity of cellular proteasome” value ([2]; PC-3 cells, 24 h) was “not significantly affected”. For the same molecule, the “Effect on trypsin-like (T-L) activity of cellular proteasome” value ([2]; PC-3 cells, 24 h) was “not significantly affected”, the “Inhibition on C-L activity of cellular proteasome” value ([2]; PC-3 cells, 24 h, doses of 1 and 10 μM) was “significant” and the “Dissociation (k d)” value [3] was 0.0353 S^-1. For the same molecule, the Kd ([3]; read-out: Equilibrium dissociation (K D)) was 4.68 µM, the kon ([3]; pH 7.4, read-out: Association (k a)) was 7550 M⁻¹ s⁻¹ and the IC50 ([4]; 24 h) was 27.5 ± 3.35 µM. It also gave an IC50 ([4]; 48 h) of 13.1 ± 1.58 µM and an IC50 ([4]; 72 h) of 7.25 ± 0.312 µM.
